Test results: patent US9598393B2, “Structural variants of mycolactones for use in modulating inflammation, immunity and pain” (priority 2011, dated 2017)

How the values were obtained:
HeLa cell = assay: Cytotoxicity by Trypan Blue dye exclusion (cell viability); assay type: cell-based, human
Description: (B) HeLa cell death being negligible in the concentration and time frame conditions used in (A), the cytotoxicity of 16 μM mycolactone and variants was evaluated after 48 h of incubation by cell exclusion of the Trypan Blue dye. Here, one part of Trypan blue (0.4% in phosphate-buffered saline PBS) was mixed with one part cell suspension (recovered from cell culture wells by trypsin treatment). The mixture was incubated for 3 min at room temperature and unstained (viable) and stained (nonviable) cells counted separately with a hemacytometer.

[1] = tested on: CD62-L receptor expression by human peripheral blood cells (PBLs); assay: T cell homing: expression of CD62-L receptor, flow cytometry; assay type: cell-based
Description: (D) The effect of mycolactone and variants on T cell homing was assessed through their inhibitory effect on the expression of CD62-L receptor by human peripheral blood cells (PBLs). Human PBLs were isolated from total blood by Ficoll density gradient centrifugation. They were incubated in 96-well plates (10^5 cells/well in RPMI 1640 medium supplemented with 10% fetal calf serum and 2 mM L-Glutamine) with mycolactone or variant for 72 h. Cells were then fixed for 20 min in 4% paraformaldehyde (PFA) and stained with an anti-CD62-L antibody coupled with phycoerythrin in a solution of PBS, BSA 0.5%, saponin 0.05%, then analysed by flow cytometry.

[2] = tested on: IL-2 production by Jurkat T cells; assay: Immunosuppressive activity: activation-induced IL-2 production, ELISA; assay type: cell-based, human; details: for Cytokine production (M.A.: mean absorbance) (C) % relative to control / IC50: Jurkat T cells; for Cytokine production (M.A.: mean absorbance) (C) % relative to control: PMA + calcium ionophore, IL-2 ELISA; for IC50: Homo sapiens, IL-2, % inhibition relative to control, read-out: Cytokine production (C): IC50 value (concentration at which the compound induces 50% of mycolactone maximal activity); for Cytokine production (C): corresponding % of mycolactone activity (in brackets): relative to mycolactone (100%)
Description: (C) The immunosuppressive activity of mycolactone and variants was measured on Jurkat T cells (ATCC®; TIB-152™ clone E6-1), as models of human T lymphocytes. Cells were inoculated in 96-well plates (5×10^5 cells/well in RPMI 1640 medium supplemented with 10% fetal calf serum and 2 mM L-Glutamine) then incubated with serial dilutions of the various compounds for 4 h, and stimulated for 20 h with 50 ng/ml phorbol-12-myristate-13-acetate (PMA) and 1 μg/ml calcium ionophore. The production of IL-2 was then assessed in culture supernatants by ELISA.

[3] = tested on: epithelial HeLa cell line; assay: Cytopathic activity, MTT assay (effect on global cell metabolic activity); assay type: cell-based, human; details: for Metabolic activity (MA: mean absorbance) (A) % relative to control / IC50: HeLa cells, 48 h, MTT; for IC50: Homo sapiens, % inhibition relative to control, read-out: Metabolic activity (A): IC50 value (concentration at which the compound induces 50% of mycolactone maximal activity); for Metabolic activity (A): corresponding % of mycolactone activity (in brackets): relative to mycolactone (100%)
Description: (A) The cytopathic activity of mycolactone and variants was assessed in a [3-(4,5-Dimethylthiazol-2-yl)-2,5-Diphenyltetrazolium Bromide] (MTT) assay, using the epithelial HeLa cell line (ATCC®; CCL-2) as a model. Briefly, HeLa cells were plated in 96-well plates (10^4 cells/well) in Dulbecco's Modified Eagle culture medium supplemented with 10% fetal calf serum and 2 mM L-Glutamine. After 16 h, mycolactone or variants dilutions (final concentration 0.4-8 μM) were added to the wells, and incubated with the cells for 48 h, prior to the addition of MTT at 50 μg/ml. After 4 h, culture supernatants were removed and the formed formazan crystals dissolved in dimethyl sulfoxide (DMSO) for absorbance measurement.

Structure (SMILES)	cytotoxic activity compared to compound 20a (HeLa cell)	CD62-L expression (MFI: mean fluorescence intensity) (D) % relative to control ([1]; 4 μM, human PBLs, 72 h) [%]	CD62-L expression (MFI: mean fluorescence intensity) (D) % relative to control ([1]; 8 μM, human PBLs, 72 h) [%]	Cytokine production (M.A.: mean absorbance) (C) % relative to control ([2]; 0.4 μM) [%]	Cytokine production (M.A.: mean absorbance) (C) % relative to control ([2]; 4 μM) [%]	Cytokine production (M.A.: mean absorbance) (C) % relative to control ([2]; 8 μM) [%]	IC50 [2] [µM]	Cytokine production (C): corresponding % of mycolactone activity (in brackets) [2] [%]	cytopathic activity compared to compound 20a [3]	Metabolic activity (MA: mean absorbance) (A) % relative to control ([3]; 0.4 μM) [%]	Metabolic activity (MA: mean absorbance) (A) % relative to control ([3]; 4 μM) [%]	Metabolic activity (MA: mean absorbance) (A) % relative to control ([3]; 8 μM) [%]	IC50 [3] [µM]	Metabolic activity (A): corresponding % of mycolactone activity (in brackets) [3] [%]	IC50 ([1]; T-cell, human PBLs, 72 h, % inhibition relative to control, read-out: CD62-L expression (D): IC50 value (concentration at which the compound induces 50% of mycolactone maximal activity)) [µM]	CD62-L expression (D): corresponding % of mycolactone activity (in brackets) ([1]; relative to mycolactone (100%)) [%]
CC(=C/C=C/C(C)=C/C[C@@H](O)CC(C)O)C=C(C)/C=C/C(=O)O[C@H]1CCCC(=O)O[C@@H]([C@@H](C)C/C(C)=C/[C@@H](C)[C@H](O)C[C@@H](C)O)C/C=C/C[C@@H]1C (stereo in doubt) [Compound 20d, (6S,7S,9E,12R)-12-[(2S,4E,6R,7R,9R)-7,9-dihydroxy-4,6-dimethyldec-4-en-2-yl]-7-methyl-2-oxo-1-oxacyclododec-9-en-6-yl(2E,4E,6E,8E,10E,13R,15R)-13,15-dihydroxy-4,6,10-trimethylhexadeca-2,4,6,8,10-pentaenoate]	significantly reduced	0	0	12	30	55	7.3	1.4	significantly reduced	0	20	25	> 16	< 20	–	–
CC(=C/C=C/C(C)=C/[C@@H](O)[C@H](O)C[C@@H](C)O)C=C(C)/C=C/C(=O)O[C@H]1CCCC(=O)O[C@@H]([C@@H](C)C/C(C)=C/[C@@H](C)[C@H](O)C[C@@H](C)O)C/C=C/C[C@@H]1C (racemic) [Compound 20c, (6S,7S,9E,12R)-12-[(2 S,4E,6R,7R,9R)-7,9-dihydroxy-4,6-dimethyldec-4-en-2-yl]-7-methyl-2-oxo-1-oxacyclododec-9-en-6-yl(2E,4E,6E,8E,10E,12R,13R,15R)-12,13,15-trihydroxy-4,6,10-trimethylhexadeca-2,4,6,8,10-pentaenoate]	significantly reduced	0	10	18	35	65	6.5	1.5	significantly reduced	0	20	25	> 16	< 20	> 16	< 0.2
